Reference: US20190187129A1, “CANCER MODELING PLATFORMS AND METHODS OF USING THE SAME” (Wake Forest University Health Sciences, priority 2016, published 2019)

Legend:
Format in all cases: cell-based
[1] = system: Ring constructs made with a Caco2 outer ring and a SW480 core; assay: Concentric ring construct drug treatment (MTS assay, LIVE/DEAD staining)
Description: The first objective of this project was to evaluate a 3D model of a colorectal cancer tumor surrounded by normal host tissue. The engineered concentric ring construct consists of a colorectal tumor core and a colon epithelial outer ring, to model a tumor in a reductionist, yet physiologically relevant environment. This construct was used to measure the growth of the tumor core, any observed invasion of the tumor cells into the epithelial layer, and the efficacy of drugs. The constructs were created with cells suspended in a hyaluronic acid and gelatin-based hydrogel. The tumor cores were made using one of four colorectal cancer cells types, thereby providing models of 4 levels of malignancy. The HCT116 cells were the most malignant, followed by the HT29, SW480, and Caco2 cells. Caco2 cells were also employed in the outer ring, as they best resemble healthy epithelial cells. The tumor core was fluorescently labeled and fluorescent imaging was used to monitor the tumor core over the course of 7-14 days. […] Ring constructs made with a Caco2 outer ring and a SW480 core were also treated with Regorafenib, a chemotherapy agent.

[2] = system: CACO2 cells; assay: cells; conditions: Homo sapiens, Caco-2, read-out: relative cellular viability (MTS, relative to control)
Protocol: (§1) Cancer cells seeded directly into wells were given 4-5 hours to reattach to the bottom of the wells. After that time, the anticancer drug solutions were administered in place of the media (FIG. 6, panel A) and an MTS assay was carried out 2 days later to determine cell viability. […] At 100 μM concentrations of Regorafenib and Sorafenib, and 100 mM concentrations of 5-FU, cellular viability remained below 20% that of the control for all four of the colorectal cancer cell lines utilized. However, screening with Dabrafenib and Trametinib produced diverging results from the other three anticancer drugs at higher concentrations. […] When treated with 1 mM concentrations of 5-FU, relative cellular viability was approximately 39% for SW480 cells and remained between 10%-22% for the HCT116, HT29, and CACO2 cells. These values were considerably lower than the relative cellular viability values for the lowest concentrations of the other anticancer drugs.
(§2) Cell Seeding: The original 15 mL centrifuge tubes containing the 10 mL of DMEM-10, cells, and trypsin were placed into a centrifuge. The centrifugation setting was 1500 RPM and at maximal acceleration for 5 minutes. After that time, the media and trypsin mixture was aspirated from the tubes, leaving the cell pellets still intact. 5 mL of DMEM-10 was then pipetted into each of the tubes, resuspending the cells in the process. Calculated volumes of the 5 mL cell-media solution were determined to ensure that 25,000 cells of each of the four colorectal cancer cell lines were seeded directly into each of the wells of a polystyrene clear-bottom 96-well plate. 100 μL of DMEM-10 media was then pipetted directly into the wells. The 96-well plates were incubated at 37° C. and 5% CO2 for 5 hours to allow the cells to reattach themselves to the bottom of the wells until media was aspirated and anticancer drug solutions were added.
(§3) Addition of Anticancer Drugs for Screening: The anticolorectal cancer drugs used in this screening included 5-FU, Regorafenib, Sorafenib, Trametinib, and Dabrafenib (Sigma-Aldrich, Missouri, USA)). High concentration drug stock solutions were created with DMSO. Lower concentration drug solutions were created by mixing the anticancer drug stocks with DMEM-10 media. […] drug solutions were generated for 5-FU; 1 μM, 10 μM, and 100 μM drug solutions were generated for Regorafenib, Sorafenib, and Dabrafenib; and 1 nM, 10 nM, and 100 nM drug solutions were generated for Trametinib. Media was carefully aspirated from the wells and 200 μL of the various drug-media solutions were placed into the wells containing cells. Three duplicates were generated for each anticancer drug concentration with each of the different cell types to calculate averages and run statistics on the data generated. Well plates were then incubated at 37° C. and 5% CO2 for […].
(§4) Cell viability assay: Cell viability was determined 48 hours after exposure to the anticancer drug solutions. The viability of the cells was examined by the CellTiter 96® AQueous One Solution Cell Proliferation (MTS) assay (Promega, Wisconsin, USA). The anticancer drug-media solutions were aspirated from the wells and 200 μL of the MTS reagent was carefully pipetted into the wells. The incubation time for the cells with the MTS reagent was approximately 45 minutes. The cell viability assay was performed on another 96-well plate and the absorbance was quantified by the EnVision Multilabel Plate Reader (PerkinElmer, California, USA).

[3] = system: HCT116 cells; assay: cells; conditions: Homo sapiens, HCT-116, read-out: relative cellular viability (MTS, relative to control)
Protocol: as §1, §2, §3, §4

[4] = system: HT29 cells; assay: cells; conditions: Homo sapiens, HT-29, read-out: relative cellular viability (MTS, relative to control)
Protocol: as §1, §2, §3, §4

CNC(=O)c1cc(Oc2ccc(NC(=O)Nc3ccc(Cl)c(C(F)(F)F)c3)c(F)c2)ccn1 [Regorafenib]
cells targeted within the ring construct (LIVE/DEAD staining) ([1]; inner ring versus outer Caco2 cells): selectively targeted the inner ring of the construct | amount of viable cells after treatment (MTS assay) ([1]; ring construct, Caco2 outer ring, SW480 core): decrease in the amount of viable cells | viability at 100 µM [2]: < 20% | viability at 100 µM [3]: < 20% | viability at 100 µM [4]: < 20%
